In patent US7101878B1 (Agouron Pharmaceuticals, Inc., priority 1998, dated 2006):

Legend:
human GnRH receptor = target: T1, human GnRH receptor (Homo sapiens, UniProt P30968); assay: Radioligand binding, 125I-GnRH-A displacement, membranes of HEK 293 cells with human GnRH receptor; conditions: read-out: hGnRH IC50
T1 construct: expressed in transfected cells; host or cells: HEK 293 (hGnRH-R/293, from Dr. Stuart Sealfon)
T1 sequence (P30968 1-328): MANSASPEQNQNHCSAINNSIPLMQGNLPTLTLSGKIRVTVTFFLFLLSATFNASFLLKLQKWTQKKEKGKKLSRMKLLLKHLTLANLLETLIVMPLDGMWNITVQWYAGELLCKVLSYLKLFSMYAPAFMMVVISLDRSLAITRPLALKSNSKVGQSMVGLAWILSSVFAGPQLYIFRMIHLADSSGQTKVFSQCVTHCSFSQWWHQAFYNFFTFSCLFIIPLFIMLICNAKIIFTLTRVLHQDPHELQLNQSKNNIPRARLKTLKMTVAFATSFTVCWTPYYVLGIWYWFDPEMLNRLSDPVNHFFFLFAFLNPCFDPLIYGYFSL
Summary of the method: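 After filtration and PBS washes, bound radioactivity was counted by scintillation and IC50 derived. Identical conditions applied for non-human receptors.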

rat GnRH receptor = target: T2, rat GnRH receptor (Rattus norvegicus, UniProt P30969); assay: Radioligand binding, 125I-GnRH-A, rat pituitary membranes; design: membranes were prepared from rat pituitary; from tissue; host or cells: rat pituitary; conditions: read-out: rGnRH IC50
T2 sequence (P30969 1-327): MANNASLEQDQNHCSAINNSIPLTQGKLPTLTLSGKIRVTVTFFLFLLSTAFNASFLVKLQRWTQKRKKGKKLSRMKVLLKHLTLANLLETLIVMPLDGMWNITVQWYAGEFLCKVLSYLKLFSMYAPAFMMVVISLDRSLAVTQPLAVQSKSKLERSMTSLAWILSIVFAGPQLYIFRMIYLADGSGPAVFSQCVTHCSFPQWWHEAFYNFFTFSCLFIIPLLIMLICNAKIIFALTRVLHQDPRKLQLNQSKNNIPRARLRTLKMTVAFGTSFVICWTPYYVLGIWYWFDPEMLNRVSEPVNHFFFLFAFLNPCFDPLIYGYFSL
Description: All compounds were diluted in 1% DMSO (final assay concentration) in binding assay buffer. […] Reactions were terminated by rapid filtration onto 96-well Packard GF/C filters soaked in 0.1% polyethyleneimine. Filters were washed three times with PBS buffer, dried and counted on a Packard Topcount by liquid scintillation counting.
Assay conditions were identical for assessing compound activities at other species. […] IC50 values for control peptides and test compounds were calculated utilizing GraphPad Prism™ software.
The reaction mixture was vortexed and incubated for 1 min at room temperature. After one min, the mixture was vortexed and allowed to incubate for an additional minute. 2 ml of 0.5 M acetic acid/1% BSA was added to the reaction tube and the mixture was added to a C18 Sep-Pak cartridge. The cartridge was washed with subsequent washes of 5 ml H2O and 5 ml 0.5M acetic acid and then eluted with 5×1 ml of 60% CH3CN/40% 0.5M acetic acid. The eluate was diluted with 3× volume of HPLC buffer A (0.1% TFA in H2O) and loaded onto a C18 column. […] The radioactive fractions (750 ed/fraction) are collected into clean polypropylene tubes containing 100 μl of 10% BSA. Fractions were assessed for biological activity by radioligand binding.

| IC50 (human GnRH receptor) | IC50 (rat GnRH receptor) | Structure (SMILES) |
| --- | --- | --- |
| 2 µM | 2.8 µM | Cc1cc2c(cc1Cc1ccc(C(N)=O)o1)C(C)(C)CCC2(C)C [AXC- 06675] |
| 0.88 µM | 5.3 µM | Cc1cc2c(cc1Cc1ccc(C(=O)NCC3CCNCC3)o1)C(C)(C)CCC2(C)C [Compound 76] |
| > 10 µM | 8.45 µM | Cc1ccc(C)c(Cc2ccc(C(=O)NCc3cnc(C)cn3)o2)c1 [Compound 77] |
| – | 1.3 µM | Cc1cc2c(cc1Cc1ccc(C(=O)Nc3cccnc3)o1)C(C)(C)CCC2(C)C [Compound 78] |
| 0.25 µM | 0.37 µM | Cc1cc2c(cc1Cc1ccc(C(=O)NCc3ccc(-c4csnn4)cc3)o1)C(C)(C)CCC2(C)C [Compound 79] |
| – | 5.61 µM | Cc1cnc(CNC(=O)c2ccc(Cc3c(C)cc(C)c(Br)c3C)o2)cn1 [Compound 80] |
| – | 8.08 µM | Cc1cc(C)c(Cc2ccc(C(=O)NCc3cnc(C)cn3)o2)c(C)c1 [Compound 81] |
| – | 9.2 µM | Cc1cc2c(cc1Cc1ccc(C(=O)NC3CCNC3)o1)C(C)(C)CCC2(C)C (stereo not shown) [Compound 82] |
| 0.62 µM | 1.74 µM | Cc1cc2c(cc1Cc1ccc(C(=O)NCCCN3CCOCC3)o1)C(C)(C)CCC2(C)C [Compound 83] |
| 8 µM | 0.77 µM | COc1cc(C)c(Cc2ccc(C(=O)NCc3cnc(C)cn3)o2)cc1OC [Compound 84] |
| – | > 10 µM | Cc1cc2c(cc1Cc1ccc(C(=O)NC[C@H]3CC[C@H](c4nc5ccccc5[nH]4)CC3)o1)C(C)(C)CCC2(C)C [Compound 85] |
| 2.57 µM | 2.05 µM | Cc1cc2c(cc1Cc1ccc(C(=O)N3CCC(CNc4nccc(NCC5CCCO5)n4)CC3)o1)C(C)(C)CCC2(C)C (stereo not shown) [Compound 86.5] |
| 8 µM | 0.51 µM | CCc1cccc(CC)c1NC(=O)c1ccc(Cc2cc3c(cc2C)C(C)(C)CCC3(C)C)o1 [Compound 86] |
| 0.27 µM | 3.31 µM | Cc1cc2c(cc1Cc1ccc(C(=O)NCC3CCN(C(=O)OC(C)(C)C)CC3)o1)C(C)(C)CCC2(C)C [Compound 87] |
| – | 2.34 µM | Cc1cc2c(cc1Cc1ccc(C(=O)NC3CCN(C(=O)OC(C)(C)C)C3)o1)C(C)(C)CCC2(C)C (stereo not shown) [Compound 88] |
| 0.25 µM | 2.73 µM | Cc1cc2c(cc1Cc1ccc(C(=O)NCC3CCC(CNC(=O)C(F)(F)F)CC3)o1)C(C)(C)CCC2(C)C (stereo not shown) [Compound 89] |
| 0.56 µM | 1.26 µM | Cc1cc2c(cc1Cc1ccc(C(=O)NCC3CCC(CNCc4c(C)noc4C)CC3)o1)C(C)(C)CCC2(C)C (stereo not shown) [Compound 90] |
| 8 µM | 5.47 µM | Cc1cc2c(cc1Cc1ccc(C(=O)NCC3CCC(CNc4nccc(Cl)n4)CC3)o1)C(C)(C)CCC2(C)C (stereo not shown) [Compound 93] |
| 3 µM | 1.58 µM | Cc1cc2c(cc1Cc1ccc(C(=O)N3CCC(Nc4nccc(NCC5CCCO5)n4)CC3)o1)C(C)(C)CCC2(C)C (stereo not shown) [Compound 94.2] |
| – | 4.83 µM | Cc1cc2c(cc1Cc1ccc(C(=O)N3CCC(Nc4ccnc(NCC5CCCO5)n4)C3)o1)C(C)(C)CCC2(C)C (stereo not shown) [Compound 94.5] |
| – | 1.26 µM | Cc1cc2c(cc1Cc1ccc(C(=O)NCc3ccc(CNC(=O)C(F)(F)F)cc3)o1)C(C)(C)CCC2(C)C [Compound 104] |
| – | 2.74 µM | Cc1cc2c(cc1Cc1ccc(C(=O)Nc3ccc(C(N)=O)cc3)o1)C(C)(C)CCC2(C)C [Compound 108] |
| – | > 10 µM | Cc1cc2c(cc1Cc1ccc(C(=O)NC3CCC(NC(=O)C(F)(F)F)CC3)o1)C(C)(C)CCC2(C)C (stereo not shown) [Compound 110] |
| – | 7.78 µM | Cc1cc2c(cc1Cc1ccc(C(=O)NC3CCC(N)CC3)o1)C(C)(C)CCC2(C)C (stereo not shown) [Compound 112] |
| – | 7 µM | Cc1cc(NS(=O)(=O)c2ccc(NC(=O)c3ccc(Cc4cc5c(cc4C)C(C)(C)CCC5(C)C)o3)cc2)no1 [Compound 114] |
| – | 0.75 µM | Cc1cc2c(cc1Cc1ccc(C(=O)NC[C@@H](O)c3ccccc3)o1)C(C)(C)CCC2(C)C [Compound 124] |
| – | 1.39 µM | COc1ccc(CNC(=O)c2ccc(Cc3cc4c(cc3C)C(C)(C)CCC4(C)C)o2)c2ccccc12 [Compound 129] |
